Experimental findings from patent US10399966B2, “Compounds for treatment of trypanosomes and neurological pathogens and uses thereof” (The University of North Carolina at Chapel Hill, priority 2016, dated 2019) are described below.

One data set concerns T. b. brucei. As to the kind of experiment: In vitro antitrypanosomal activity against T. brucei (growth inhibition). In kind it is cell-based, Trypanosoma brucei. The following applies: Trypanosoma brucei. The protocol: Primary hits from the screen were further characterized using a dose-response assay format to determine the EC50. In parallel, the cytotoxicities of these compounds were determined against a proliferating human hepatoma cell line (Huh7). […] SI—CC50/EC50). The final set of confirmed T. brucei hits consisted of 1035 inhibitors. […] In vitro antitrypanosomal activities against T. b. rhodesiense (STIB9000) and cytotoxicities against L6 rat myoblast cells were measured following established protocols (Orhan et al., Mar. Drugs 8:47 (2010). […] All wells including negative controls contained a final of 0.4% DMSO. After incubation of the plates at 37° C. for 48 h, the parasite density was determined using the CellTiter-Glo reagent (Promega), a firefly luciferase assay system that measures the amount of cellular ATP present in plate wells.

Another data set relates to Trypanosoma cruzi. As to the kind of experiment: Efficacy against T. cruzi in vitro. In kind it is cell-based. The following applies: Trypanosoma cruzi; for EC90: read-out: T.cruzi EC90.
Data set [1] has as its system human lymphocytes CRL-8155. The data set is described as follows: Cytotoxicity against CRL-8155 cells. The following applies: human lymphoblasts; for EC50: read-out: CRL-8155 EC50, concentration required to inhibit growth by 50%; for EC90: read-out: CRL-8155 EC90, concentration required to inhibit growth by 90%.
Experimental: The selectivity of each compound for the parasite over each of the two cell lines was calculated.
The next data set relates to human hepatocytes HepG2. As to the kind of experiment: Cytotoxicity against HepG2 cells. The following applies: for EC50: Homo sapiens, HepG2, read-out: HepG2 EC50; for EC90: read-out: HepG2 EC90, concentration required to inhibit growth by 90%, human hepatocytes.
Data set [2] in a line: Distribution between mouse plasma and brain (brain penetration, ip). In kind it is in vivo. The following applies: for Brain/plasma ratio / [compound]Brain / [compound]Plasma: Table 14, mice, single ip dose 5 mg/kg, one hour post-dose; for [compound]Brain / [compound]Plasma: ± SEM of 3 mice (compound 3: 6 mice); for concentration at 1 h / Kp at 1 h: mouse, 5 mg/kg, Table 8; for concentration at 1 h: groups of 3 mice (compound 3: ± SEM of 6 mice); for Kp at 1 h: groups of 3 mice, read-out: Average brain/plasma ratio. As to the method: For distribution of compounds between mouse plasma and brain, mice (in groups of 3) were injected with test compounds (5 mg/kg ip) and sacrificed at the indicated times for collection of plasma and brain. Compound was dissolved in 0.4 mL of dosing solution (7% Tween 80, 3% ethanol, 5% DMSO, 0.9% saline) for ip injections. The brains were weighed and immediately frozen, then later homogenized in acetonitrile using a Dounce homogenizer. Prior to animal studies, recovery of test compound was carried out by adding a known amount to a mouse brain in the test extraction solvent and performing the homogenization. Compound recovery was determined by liquid chromatography/tandem mass spectrometry analysis relative to a standard compound amount. Blood was taken from the same mice in heparinized capillary tubes (Fisherbrand) for determination of compound concentration in plasma. The concentration of compound in the brain was obtained by dividing the moles of compound in the brain by the brain volume (obtained from the brain weight assuming 1 g is 1 mL) and correcting for the brain vasculature volume of 2.5% by weight.
Brain penetration studies (Table 14) were initially performed upon compounds 1, 2, and 3, but were expanded to include other compounds in order to explore the SAR of brain penetration. Groups of three mice were given single 5 mg/kg ip doses of the test compounds and were sacrificed 1 h post-dose.

Setting [3] is: Table 9, read-out: T. brucei EC50.
The mark [4] stands for this setting: Table 9, read-out: T. brucei EC90.
[5] abbreviates: Table 10, read-out: T.cruzi EC50.
[6] abbreviates: Table 11, read-out: T. b. brucei EC50.
The mark [7] stands for this setting: Table 8, read-out: T. brucei EC50.
Where [8] appears, read: brain and plasma, intraperitoneal.
Where [9] appears, read: brain, intraperitoneal, read-out: Average [compound] brain.
Where [10] appears, read: plasma, intraperitoneal, read-out: Average [compound] plasma.

For orientation: melting point means the temperature, or range, at which the solid turns liquid. As usually defined, the EC50 is the concentration giving half of the maximal effect. By EC90 is commonly meant the concentration needed for an effect of 90%.

Each structure is given as a SMILES string. Read-outs that look alike come from different tables or passages of the source.

`O=C(Nc1ccc2sc(-c3ccc(F)cc3F)nc2c1)N1CCCC1` [Compound 34, 2-(2,4-Difluorophenyl)-5-(N-pyrrolidylamido)benzothiazole] yielded a melting point of 223 to 224 °C. Further, in the data set on T. b. brucei (setting [3]), the EC50 is 0.929 µM. In addition, the EC90 in the data set with T. b. brucei (setting [4]) is 1.48 µM. The EC50 with Trypanosoma cruzi (setting [5]) came out at 1.73 µM. Also, the EC90 with Trypanosoma cruzi (Table 10) came out at 2.02 µM.
Consider `O=C(Nc1ccc2sc(-c3ccccc3)nc2c1)c1cccs1` [Compound 18, 2-Phenyl-5-(2-thienylamido)benzothiazole], for which the melting point came out at 256 °C. In data set [1], the EC50 was over 50 µM and the EC90 is over 50 µM. For the same compound, the EC50 in the data set on T. b. brucei (setting [6]) is 0.882 µM. Also, the EC50 in the data set on T. b. brucei (setting [3]) was 0.882 µM. The EC90 with T. b. brucei (setting [4]) came out at 2.13 µM. In the data set with human hepatocytes HepG2, the concentration for a half-maximal effect (EC50) is over 50 µM and the EC90 was over 50 µM.
Compound `O=C(Nc1ccc2sc(-c3ccccc3)nc2c1)N1CC=CCC1` [Compound 24, N-(2-Phenylbenzo[d]thiazol-5-yl)-3,6-dihydropyridine-1(2H)-carboxamide] showed a melting point of 199 to 200 °C. Besides, in the data set on T. b. brucei (setting [3]), the half-maximal effective concentration (EC50) was 1.12 µM. Besides, the EC90 with T. b. brucei (setting [4]) was 1.35 µM.
`N#CC1CCN(C(=O)Nc2ccc3sc(-c4ccc(F)c(F)c4)nc3c2)C1` (stereo not shown) [Compound 36, 2-(3,4-Difluorophenyl)-5-(3-cyano-N-pyrrolidylamido)benzothiazole] came in with a melting point of 222 to 224 °C. The EC50 with T. b. brucei (setting [3]) was 2.85 µM. Besides, in the data set with T. b. brucei (setting [4]), the EC90 was found to be 4.67 µM.
With `O=C(Nc1ccc2sc(-c3ccc(F)c(F)c3)nc2c1)N1CC[C@@H](F)C1` [Compound 4, (R)-2-(3,4-Difluorophenyl)-5-(3-fluoro-N-pyrrolidylamido)benzothiazole], the EC50 is over 50 µM in data set [1]; 0.326 µM in the data set on T. b. brucei (Table 6, read-out: T. brucei EC50); 0.326 µM in the data set on T. b. brucei (setting [7]); 0.326 µM in the data set on T. b. brucei (setting [6]); 0.326 µM with T. b. brucei (setting [3]); 0.491 µM in the data set on Trypanosoma cruzi (Table 6, read-out: T. cruzi EC50). Also, the EC50 in the data set on Trypanosoma cruzi (setting [5]) is 0.968 µM; in the data set with human hepatocytes HepG2, over 50 µM. The EC90 in data set [1] is over 50 µM; with T. b. brucei (setting [4]), 0.491 µM; with Trypanosoma cruzi (Table 10), 1.54 µM; in the data set with human hepatocytes HepG2, over 50 µM. Further, in data set [2], the Brain/plasma ratio is on record as 4.86 ± 1.055. Moreover, the “[compound]Brain” value in data set [2] is 6.35 ± 2.257 µM. The “[compound]Plasma” value in data set [2] is 1.20 ± 0.270 µM. The concentration at 1 h in data set [2] (in vivo, read-out: Average [compound] brain) was 6350 ± 3910 nM; in data set [2] (in vivo, read-out: Average [compound] plasma), 1200 ± 467 nM. In data set [2] (in vivo), the Kp at 1 h was 4.86 ± 1.83.
In the case of `CN1CCN(C(=O)Nc2ccc3sc(-c4cccc(F)c4)nc3c2)CC1` [Compound 30, N-(2-(3-Fluorophenyl)benzothiazol-5-yl)-4-methylpiperazine-1-carboxamide], the melting point was in the range of 224 to 226 °C. The EC50 in the data set with T. b. brucei (setting [3]) came to 3.15 µM. The EC90 in the data set on T. b. brucei (setting [4]) is 7.55 µM.
On the same counts, the results for `O=C(Nc1ccc2sc(-c3ccc(F)cc3)nc2c1)c1ccccc1` [Compound 25, 5-Benzamido-2-(4-fluorophenyl)benzothiazole] are 232.5 to 233.5 °C, 1.92 µM and 3 µM.
`O=C(Nc1ccc2sc(-c3ccc(F)c(F)c3)nc2c1)N1C[C@@H](F)[C@@H](F)C1` [Compound 59, cis-2-(3,4-Difluorophenyl)-5-(3,4-difluoro-N-pyrrolidylamido)benzothiazole] had a melting point of 241 to 243 °C. Besides, the EC50 in the data set with T. b. brucei (Table 17, read-out: T. b. brucei EC50) came out at 0.34 µM. In the data set on T. b. brucei (Table 17, read-out: T. b. brucei EC90), the EC90 was 0.517 µM.
With `N=C(N)c1ccc(OCCCCCOc2ccc(C(=N)N)cc2)cc1` [penth, Pentamidine, reference compound], the results for the concentration giving a half-maximal response (EC50) (in data set [1]; in the data set on T. b. brucei (setting [6]); with human hepatocytes HepG2) were 45.4 µM, 0.00105 µM and over 100 µM, respectively. Besides, the EC90 (in data set [1]; in the data set with human hepatocytes HepG2) was over 100 µM in each case.
Turning to `O=C(Nc1ccc2sc(-c3ccc(F)c(F)c3)nc2c1)N1CCC(F)(F)CC1` [Compound 40, 2-(3,4-Difluorophenyl)-5-(4,4-difluoro-N-piperidylamido)benzothiazole], the melting point was 222 to 225 °C. Besides, in the data set with T. b. brucei (setting [3]), the EC50 amounted to 2.98 µM. The EC90 with T. b. brucei (setting [4]) was 4.17 µM.
On the same counts, the results for `COC1CCN(C(=O)Nc2ccc3sc(-c4ccc(F)c(F)c4)nc3c2)C1` (stereo not shown) [Compound 39, 2-(3,4-Difluorophenyl)-5-(3-methoxy-N-pyrrolidylamido)benzothiazole] are 189 to 190.5 °C, 3.05 µM and 4.59 µM.
On the same counts, the results for `O=C(Nc1ccc2sc(-c3ccccc3)nc2c1)N1CCSC1` [Compound 22] are 177 to 179 °C, 1.24 µM and 2.38 µM.
`CN(C)C1CCN(C(=O)Nc2ccc3sc(-c4ccc(F)c(F)c4)nc3c2)C1` (stereo not shown) [Compound 11, 2-(3,4-Difluorophenyl)-5-(3-dimethylamino-N-pyrrolidylamido)benzothiazole] registered a melting point of 147 to 149 °C. Besides, the EC50 in the data set with T. b. brucei (setting [7]) was 1.71 µM. Besides, the EC50 in the data set with T. b. brucei (setting [3]) is 1.7 µM. Also, the EC90 in the data set with T. b. brucei (setting [4]) came to 1.95 µM. Moreover, in data set [2], the Brain/plasma ratio came to 3.80 ± 0.331, the “[compound]Brain” value is 3.00 ± 0.796 µM and the “[compound]Plasma” value was determined as 0.780 ± 0.202 µM. Moreover, the Kp at 1 h in data set [2] (setting [8]) was 3.8 ± 0.57. Besides, the concentration at 1 h in data set [2] (setting [9]) is 3000 ± 1380 nM. Besides, the concentration at 1 h in data set [2] (setting [10]) stood at 780 ± 350 nM.
Compound `O=C(Nc1ccc2sc(-c3ccc(F)c(F)c3)nc2c1)N1CCC(C(F)(F)F)C1` (stereo not shown) [Compound 10, 2-(3,4-Difluorophenyl)-5-[(3-trifluoromethyl)-N-pyrrolidylamido]benzothiazole] gave a melting point of 171 to 175 °C. Moreover, the EC50 in the data set on T. b. brucei (setting [7]) was found to be 1.7 µM. Also, the EC50 with T. b. brucei (setting [3]) is 1.69 µM. Further, the EC90 with T. b. brucei (setting [4]) worked out at 4.88 µM. For the same compound, in data set [2], the Brain/plasma ratio is given as 0.477 ± 0.052, the “[compound]Brain” value is 1.97 ± 0.612 µM and the “[compound]Plasma” value turned out to be 4.15 ± 1.368 µM. For the same compound, the Kp at 1 h in data set [2] (setting [8]) is 0.477 ± 0.09. Besides, the concentration at 1 h in data set [2] (setting [9]) was 1970 ± 1060 nM. Moreover, in data set [2] (setting [10]), the concentration at 1 h worked out at 4150 ± 2370 nM.
In the case of `O=C(Nc1ccc2sc(-c3cccc(F)c3)nc2c1)c1ccccc1` [Compound 28, 5-Benzamido-2-(3-fluorophenyl)benzothiazole], the melting point lay within 221 to 222 °C. Also, the EC50 with T. b. brucei (setting [3]) worked out at 1.78 µM. Also, the EC90 with T. b. brucei (setting [4]) was 3.62 µM.
Consider `O=C(Nc1ccn2cc(-c3ccc(F)c(F)c3)nc2c1)N1CC[C@H](F)C1` [Compound 41, (3S)-N-[2-(3,4-difluorophenyl)imidazo[1,2-a]pyridin-7-yl]-3-fluoropyrrolidine-1-carboxamide], for which the EC50 in the data set on T. b. brucei (Table 16, read-out: T. b. brucei EC50) came out at 0.16 µM; with Trypanosoma cruzi (Table 16, read-out: T. Cruzi EC50), 0.39 µM.
For the compound `O=C(Nc1ccc2sc(-c3ccc(F)c(F)c3)nc2c1)N1CCC(O)C1` (stereo not shown) [Compound 38, 2-(3,4-Difluorophenyl)-5-(3-hydroxy-N-pyrrolidylamido)benzothiazole], the melting point was 211 to 213 °C. Moreover, the EC50 with T. b. brucei (setting [3]) came to 7.68 µM. In addition, the EC90 in the data set on T. b. brucei (setting [4]) is 13.6 µM.
